The results in this text go back to patent publication US12528818B2, “Compositions and methods for inhibition of RAS” (Leidos Biomedical Research, Inc., priority 2021, dated 2026).

This assay concerns pERK in NCI-H358 cells. In words: Cell-based pERK HTRF assay (pERK inhibition in H358 cells). To be noted: pERK inhibition IC50, NCI-H358 cells, 30 min incubation, read-out: PERK in H358 cell. On the technique in general: Time-resolved FRET reads energy transfer from a long-lived donor to a nearby acceptor.

Where two headings read alike, the source gives them in different places. Some results are limits rather than exact numbers.

`C=CC(=O)N1C[C@H](C)N(c2nc(OC[C@@]34CCCN3C[C@H](F)C4)nc3c(F)c(-c4ccc(F)c5sc(N)nc45)c(OC(F)(F)F)cc23)C[C@H]1C` [Compound 235, 1-((2R,5S)-4-(7-(2-amino-7-fluorobenzo[d]thiazol-4-yl)-8-fluoro-2-(((2R,7aS)-2-fluorotetrahydro-1H-pyrrolizin-7a(5H)-yl)methoxy)-6-(trifluoromethoxy)quinazolin-4-yl)-2,5-dimethylpiperazin-1-yl)prop-2-en-1-one]: the IC50 (Homo sapiens, NCI-H358, 0.5 h) is below 0.1 µM.

Turning to `C=CC(=O)N1CC[C@@H](N(C)c2nc(OC[C@@]34CCCN3C[C@H](F)C4)nc3c(F)c(-c4ccc(F)c5sc(N)nc45)c(OC(F)(F)F)cc23)C1` [Compound 238, 1-((3R)-3-((7-(2-amino-7-fluorobenzo[d]thiazol-4-yl)-8-fluoro-2-(((2R,7aS)-2-fluorotetrahydro-1H-pyrrolizin-7a(5H)-yl)methoxy)-6-(trifluoromethoxy)quinazolin-4-yl)(methyl)amino)pyrrolidin-1-yl)prop-2-en-1-one], under “Homo sapiens, NCI-H358, 0.5 h”, the IC50 lay within 0.1 to 1 µM. Consider `C=CC(=O)N1CCC[C@@H](N(C)c2nc(OC[C@@]34CCCN3C[C@H](F)C4)nc3c(F)c(-c4ccc(F)c5sc(N)nc45)c(C(F)(F)F)cc23)C1` [Compound 244], for which the IC50 is below 0.1 µM. On the same count and under the same terms, as for `C=CC(=O)N1CCC[C@@H](N(C)c2nc(OC[C@@]34CCCN3C[C@H](F)C4)nc3c(F)c(-c4ccc(F)c5sc(N)nc45)c(C(F)(F)F)cc23)C1` [Compound 245], the figure is above 1 µM.

On to `C=CC(=O)N1CCN(c2nc(OCC34CCCN3CCC4)nc3c(F)c(-c4ccc(F)c5sc(N)nc45)c(C(F)F)cc23)CC1` [Compound 246], for which the IC50 (Homo sapiens, NCI-H358, 0.5 h) fell in the range of 0.1 to 1 µM. The same measure, in the same setting: as for `C=CC(=O)N1CC(N(C)c2nc(OC[C@@]34CCCN3C[C@H](F)C4)nc3c(F)c(-c4ccc(F)c5sc(N)nc45)c(Cl)cc23)C1` [Compound 247], the figure is below 0.1 µM; as for `C=CC(=O)N1CC[C@@H](N(CC)c2ncnc3c(F)c(-c4ccc(F)c5sc(N)nc45)c(C(F)(F)F)cc23)C1` [Compound 248], 0.1 to 1 µM; as for `C=CC(=O)N1CC[C@@H](N(CC)c2nc(OCC34CCCN3CCC4)nc3c(F)c(-c4ccc(F)c5sc(N)nc45)c(C(F)(F)F)cc23)C1` [Compound 249], 0.1 to 1 µM. As to `C=CC(=O)N1C[C@H](C)N(c2nc(OC[C@@]34CCCN3C[C@H](F)C4)nc3c(F)c(-c4ccc(F)c5sc(N)c(C#N)c45)c(C(F)(F)F)cc23)C[C@H]1C` [Compound 252, 4-(4-((2S,5R)-4-acryloyl-2,5-dimethylpiperazin-1-yl)-8-fluoro-2-(((2R,7aS)-2-fluorotetrahydro-1H-pyrrolizin-7a(5H)-yl)methoxy)-6-(trifluoromethyl)quinazolin-7-yl)-2-amino-7-fluorobenzo[b]thiophene-3-carbonitrile], for the setting “Homo sapiens, NCI-H358, 0.5 h”, the IC50 was below 0.1 µM. Same read-out and setting: then `C=CC(=O)N1CC[C@@H](N(C)c2nc(OC[C@@]34CCCN3C[C@H](F)C4)nc3c(F)c(-c4ccc(F)c5sc(N)c(C#N)c45)c(C(F)(F)F)cc23)C1` [Compound 253], with below 0.1 µM. As to `C=CC(=O)N1CCN(c2nc(OCC34CCCN3CCC4)nc3c(F)c(-c4ccc(F)c5sc(N)nc45)c(OC(F)F)cc23)CC1` [Compound 254], where the note is “Homo sapiens, NCI-H358, 0.5 h”, the IC50 fell in the range of 0.1 to 1 µM. The same measure, in the same setting: as for `C=CC(=O)N1CC[C@@H](N(CC)c2nc(OC[C@@]34CCCN3C[C@H](F)C4)nc3c(F)c(-c4ccc(F)c5sc(N)nc45)c(C(F)(F)F)cc23)C1` [Compound 257], the figure is below 0.1 µM. With `C=CC(=O)N1CC[C@@H](N(C)c2nc(OC[C@@H]3CC(C)(C)CN3C)nc3c(F)c(-c4ccc(F)c5sc(N)nc45)c(C(F)(F)F)cc23)C1` [Compound 265], the IC50 (Homo sapiens, NCI-H358, 0.5 h) is below 0.1 µM.

For the compound `C=CC(=O)N1C[C@H](C)N(c2nc(OC[C@@]34CCCN3C[C@H](F)C4)nc3c(F)c(-c4ccc(F)c5sc(N)nc45)c(Cl)cc23)C[C@H]1C` [Compound 266], for the setting “Homo sapiens, NCI-H358, 0.5 h”, the IC50 is below 0.1 µM. On the same count and under the same terms, then `C=CC(=O)N1C[C@H](C)N(c2nc(OC[C@]34CCCN3C[C@H](OC)C4)nc3c(F)c(-c4ccc(F)c5sc(N)nc45)c(C(F)(F)F)cc23)C[C@H]1C` [Compound 269], with below 0.1 µM. On to `C=CC(=O)N1CC(Nc2nc(OC[C@@]34CCCN3C[C@H](F)C4)nc3c(F)c(-c4ccc(F)c5sc(N)nc45)c(C(F)(F)F)cc23)C1` [Compound 270], for which, under “Homo sapiens, NCI-H358, 0.5 h”, the IC50 was below 0.1 µM. In the case of `C=CC(=O)N1CC[C@@H](N(C)c2nc(OC[C@@H]3C[C@@H](F)CN3C3CC3)nc3c(F)c(-c4ccc(F)c5sc(N)nc45)c(C(F)(F)F)cc23)C1` [Compound 273], where the note is “Homo sapiens, NCI-H358, 0.5 h”, the IC50 lay within 0.1 to 1 µM.

Consider `C=CC(=O)N1C[C@H](N(C)c2nc(OC[C@@]34CCCN3C[C@H](F)C4)nc3c(F)c(-c4ccc(F)c5sc(N)nc45)c(C(F)(F)F)cc23)C[C@H]1C` [Compound 274], for which the IC50 (Homo sapiens, NCI-H358, 0.5 h) was below 0.1 µM. The same measure, in the same setting: as for `C=CC(=O)N1CC[C@@H](N(C)c2nc(OC[C@@]34CCCN3C[C@H](F)C4)nc3c(F)c(-c4ccc(F)c5oc(N)nc45)c(C(F)(F)F)cc23)C1` [Compound 275], the figure is below 0.1 µM; as for `C=CC(=O)N1C[C@@H](F)[C@@H](N(C)c2nc(OC[C@@]34CCCN3C[C@H](F)C4)nc3c(F)c(-c4ccc(F)c5sc(N)nc45)c(C(F)(F)F)cc23)C1` [Compound 279], below 0.1 µM. Still for that read-out and setting: then `C=CC(=O)N1C[C@H](C)N(c2nc(OC[C@@]34CCCN3C[C@H](F)C4)nc3c(F)c(-c4ccc(F)c5sc(N)nc45)c(OC(F)F)cc23)C[C@H]1C` [Compound 280], with below 0.1 µM.

For `C=CC(=O)N1C[C@H](C)N(c2nc(OCC34CCCN3CCC4)nc3c(F)c(-c4ccc(F)c5sc(N)nc45)c(C(F)(F)F)cc23)C[C@H]1C` [Compound 281], where the note is “Homo sapiens, NCI-H358, 0.5 h”, the IC50 is below 0.1 µM.

In the case of `C=CC(=O)N1C[C@@H]2C[C@H]1[C@@H]2N(C)c1nc(OC[C@@]23CCCN2C[C@H](F)C3)nc2c(F)c(-c3ccc(F)c4sc(N)nc34)c(C(F)(F)F)cc12` [Compound 282], the IC50 (Homo sapiens, NCI-H358, 0.5 h) was above 1 µM. On the same count and under the same terms, as for `C=CC(=O)N1C[C@@H](N(C)c2nc(OC[C@@]34CCCN3C[C@H](F)C4)nc3c(F)c(-c4ccc(F)c5sc(N)nc45)c(C(F)(F)F)cc23)C(C)(C)C1` [Compound 283], the figure is above 1 µM; as for `C=CC(=O)N1CCN(c2nc(OCC34CCCN3CCC4)nc3c(F)c(-c4ccc(F)c5sc(N)nc45)c(C(C)(F)F)cc23)CC1` [Compound 284], above 1 µM. With `C=CC(=O)N1C[C@H](C)N(c2nc(OCC3(CN4CCOCC4)CC3)nc3c(F)c(-c4ccc(F)c5sc(N)nc45)c(C(F)(F)F)cc23)C[C@H]1C` [Compound 285], the IC50 (Homo sapiens, NCI-H358, 0.5 h) is below 0.1 µM.

For the compound `C=CC(=O)N1C[C@H](C)N(c2nc(OCC3(CN4CC[C@@H](F)C4)CC3)nc3c(F)c(-c4ccc(F)c5sc(N)nc45)c(C(F)(F)F)cc23)C[C@H]1C` [Compound 286], for the setting “Homo sapiens, NCI-H358, 0.5 h”, the IC50 is below 0.1 µM. Turning to `C=CC(=O)N1CC[C@@H](N(C)c2nc(OCC3(CN4CCOCC4)CC3)nc3c(F)c(-c4ccc(F)c5sc(N)nc45)c(C(F)(F)F)cc23)C1` [Compound 287], the IC50 (Homo sapiens, NCI-H358, 0.5 h) is below 0.1 µM. On to `C=CC(=O)N1CC[C@@H](N(C)c2nc(OCC3(CN4CC[C@@H](F)C4)CC3)nc3c(F)c(-c4ccc(F)c5sc(N)nc45)c(C(F)(F)F)cc23)C1` [Compound 288], for which the IC50 (Homo sapiens, NCI-H358, 0.5 h) is below 0.1 µM.

Turning to `C=CC(=O)N1CC[C@@H](N(C)c2nc(OC[C@@]34CCCN3C[C@H](OC)C4)nc3c(F)c(-c4ccc(F)c5sc(N)nc45)c(C(F)(F)F)cc23)C1` [Compound 290], the IC50 (Homo sapiens, NCI-H358, 0.5 h) was below 0.1 µM. For `C=CC(=O)N1C[C@H](C)N(c2nc(OC[C@@]34CCCN3C[C@H](F)C4)nc3c(F)c(-c4ccc(F)c5sc(N)nc45)c(C(F)F)cc23)C[C@H]1C` [Compound 291], the IC50 (Homo sapiens, NCI-H358, 0.5 h) was below 0.1 µM. `C=CC(=O)N1C[C@@H](C)[C@@H](N(C)c2nc(OC[C@@]34CCCN3C[C@H](F)C4)nc3c(F)c(-c4ccc(F)c5sc(N)nc45)c(C(F)(F)F)cc23)C1` [Compound 292]: the IC50 (Homo sapiens, NCI-H358, 0.5 h) was in the range of 0.1 to 1 µM. Turning to `C=CC(=O)N1C[C@H](N(C)c2nc(OC[C@@]34CCCN3C[C@H](F)C4)nc3c(F)c(-c4ccc(F)c5sc(N)nc45)c(C(F)(F)F)cc23)C[C@@H]1C` [Compound 293], the IC50 (Homo sapiens, NCI-H358, 0.5 h) is below 0.1 µM.

Take `C=CC(=O)N1C[C@H](N(C)c2nc(OC[C@@]34CCCN3C[C@H](F)C4)nc3c(F)c(-c4ccc(F)c5sc(N)nc45)c(C(F)(F)F)cc23)C2(CC2)C1` [Compound 294]: the IC50 (Homo sapiens, NCI-H358, 0.5 h) was below 0.1 µM.

For `C=CC(=O)N1C[C@H](C)N(c2nc(OC[C@@]34CCCN3C[C@H](F)C4)nc3c(Cl)c(-c4ccc(F)c5sc(N)nc45)c(C(F)(F)F)cc23)C[C@H]1C` [Compound 295, 1-((2R,5S)-4-(7-(2-amino-7-fluorobenzo[d]thiazol-4-yl)-8-chloro-2-(((2R,7aS)-2-fluorotetrahydro-1H-pyrrolizin-7a(5H)-yl)methoxy)-6-(trifluoromethyl)quinazolin-4-yl)-2,5-dimethylpiperazin-1-yl)prop-2-en-1-one], the IC50 (Homo sapiens, NCI-H358, 0.5 h) was below 0.1 µM. Still for that read-out and setting: as for `C=CC(=O)N1C[C@H](C)[C@@H](N(C)c2nc(OC[C@@]34CCCN3C[C@H](F)C4)nc3c(F)c(-c4ccc(F)c5sc(N)nc45)c(C(F)(F)F)cc23)C1` [Compound 296], the figure is below 0.1 µM. `C=CC(=O)N1C[C@H](C)N(c2nc(OC[C@@]34CCCN3C[C@H](OC)C4)nc3c(F)c(-c4ccc(F)c5sc(N)nc45)c(C(F)(F)F)cc23)C[C@H]1C` [Compound 297]: the IC50 is below 0.1 µM. Regarding `C=CC(=O)N1C[C@H](C)N(c2nc(OC[C@@]34CCCN3C[C@H](F)C4)nc3cc(-c4c(F)cc(F)c5sc(N)nc45)c(C(F)(F)F)cc23)C[C@H]1C` [Compound 298, 1-((2R,5S)-4-(7-(2-amino-5,7-difluorobenzo[d]thiazol-4-yl)-2-(((2R,7aS)-2-fluorotetrahydro-1H-pyrrolizin-7a(5H)-yl)methoxy)-6-(trifluoromethyl)quinazolin-4-yl)-2,5-dimethylpiperazin-1-yl)prop-2-en-1-one], the IC50 (Homo sapiens, NCI-H358, 0.5 h) was below 0.1 µM. As to `C=CC(=O)N1C[C@H](C)N(c2nc(OC[C@@]34CCCN3C[C@H](F)C4)nc3cc(-c4ccc(F)c5sc(N)nc45)c(C(F)(F)F)cc23)C[C@H]1C` [Compound 299], the IC50 (Homo sapiens, NCI-H358, 0.5 h) is below 0.1 µM. On the same count and under the same terms, as for `C=CC(=O)N1CC[C@@H](N(C)c2nc(OC[C@@]34CCCN3C[C@H](F)C4)nc3cc(-c4ccc(F)c5sc(N)nc45)c(C(F)(F)F)cc23)C1` [Compound 300], the figure is below 0.1 µM.
